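1) Cells in 96-well plates. 2) Compound, 48 h, 5 concentrations. 3) Linear interpolation between surrounding doses. 4) Unreached endpoint = highest concentration. Definition used: TGI = concentration required for complete inhibition of growth.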
Columns and labels:
Experiment in all cases: NCI tumour cell line growth inhibition, 48 h
[1] = test system: PC-3 prostate
[2] = test system: HOP-62 NSCLC
[3] = test system: CAKI-1 renal
[4] = test system: RPMI-8226 leukemia
[5] = test system: OVCAR-4 ovarian
[6] = test system: OVCAR-3 ovarian
[7] = test system: CCRF-CEM leukemia
[8] = test system: SK-MEL-5 melanoma
[9] = test system: ACHN renal
[10] = test system: SK-OV-3 ovarian

Compound	TGI [1] [µM]	TGI [2] [µM]	TGI [3] [µM]	TGI [4] [µM]	TGI [5] [µM]	TGI [6] [µM]	TGI [7] [µM]	TGI [8] [µM]	TGI [9] [µM]	TGI [10] [µM]
c1ccc(COc2ncccc2C2SCCCS2)cc1	> 100	> 100	> 100	> 100	> 100	> 100	> 100	> 100	> 100	
C=C1C(=O)C[C@@]23CCC[C@@]12CC(O)C3 (stereo partly drawn)		> 100		61.3	36.2	33.7	56.2	> 39.5		67.5
COC1(OC)N=C(N)C2(C#N)/C(=N/N(C)C)CC(C)C12C#N (stereo not drawn)	> 100	> 100	> 100				> 100	> 100	> 100	> 100
CNC(=O)OCC1=C(COC(=O)NC)CN(c2ccccc2)C1	> 100	> 100		> 100	> 100	> 100	> 100	> 100	> 100	> 100
CC(=O)OCC1OC(n2c3c(c(-c4ccco4)c(C#N)c2=S)CCCC3)C(OC(C)=O)C(OC(C)=O)C1OC(C)=O (stereo not drawn)		21.8	87.8	> 100	> 31.6	> 31.6		> 31.6	> 31.6	
COC(=O)CCc1ccc2c(c1)CC1(C2)Cc2ccc(CCC(=O)OC)cc2C1	> 100	> 100		89.7	> 100	> 100	97.1	57.7	> 100	> 100
C=C1c2nc3ccccc3n2C=C(c2ccccc2)N1c1ccc(OC)cc1	> 100		64	> 100	> 100	> 100	> 100	38.2	28.7	> 100
COc1cc2cc3c4c(cc(OC)c(OC)c4c2cc1OC)CCN3C(=O)OCCBr			> 100			> 100	88.2	> 100	> 100	> 100
Cc1ccc(Nc2nnc3n2S(=O)(=O)c2cc(C)c(Cl)cc2S3)cc1	27.3	51.8	66.1	54.9	> 100	4.63		29.6	> 100	
COc1cc2c(c(OC)c1OC)-c1ccc(SC)c(=O)cc1[C@@H](NC(=O)c1ccc(C#N)cc1)CC2		56.4		> 100	> 100	< 0.0108		< 0.01	> 100	
CCN(CC)c1ccc(C(=C2C=CC(=[N+](CC)CC)C=C2)c2ccccc2)cc1		0.491	0.504	0.0683	0.488		0.0401	0.041	0.145	0.0854
COc1cc([C@@H]2c3cc4c(cc3[C@@H](Nc3ccc(Cl)cc3C(=O)c3ccccc3Cl)[C@H]3COC(=O)[C@H]23)OCO4)cc(OC)c1OC		16.9	> 43.3		> 100	6.4				> 100
O=C(Nc1ccccc1)N1N=C(c2ccccc2)C1c1ccccc1 (stereo not drawn)	35.3		95.3	30.6	> 100	42.1		54.7	65.8	> 100
Clc1ncc(C(Cl)(Cl)Cl)nc1-c1ccccc1	3.38	6.08	5.46		17	3.1	> 100	26.4	3.19	24.3
CN(C)CCn1c(=O)c2ccc(NCCNCCO)c3c(=O)c4cc(O)ccc4n(c1=O)c23	25.1	4.16		8.43	3.55	19.3	2.05	5.22	8.64	46.7
COc1ccc(S(=O)(=O)Nc2ccc(-c3csc(N4C(=O)/C(=C/C=C\c5ccccc5)N=C4c4ccccc4)n3)cc2)cc1Cl	> 100	> 100	> 100		88.9	> 100	> 100	> 100	> 100	> 100
CC1=CC(c2ccccc2)n2c(nc3cc4ccccc4cc32)N1 (stereo not drawn)	> 100		> 100	> 100	> 100	> 100	> 100	> 100	> 100	> 100
COC1(OC)/C(=C(\N)C=O)NC(C)(C)N1O	> 100	> 100	> 100	> 100	> 100	97.5	> 100	> 100	> 100	
COC(=O)c1ccc(OCc2ccc3nc(-c4ccccc4)c(Cl)nc3c2)cc1	> 100	> 100	69.9	> 100	> 100	> 100	> 100	> 100	> 100	
CCOc1ccc(NC(=S)/N=C/C(C(=O)Nc2ccccc2C)=C(\C)O)cc1	> 100	> 100	> 100	> 100	> 100	> 100		> 100	> 100	> 100
CCOc1cc(C=O)ccc1O	> 100	> 100	> 100	> 100	> 100	> 100		> 100	> 100	
Cc1c(-c2coc(-c3ccc(Cl)cc3)n2)c(=O)n(-c2ccccc2)n1C		> 100		> 100	> 100	> 100	> 100	> 100	> 100	> 100
CCC1(O)CN(CCOC)[C@H]2C[C@@H]1C(=O)c1[nH]c3ccccc3c12 (stereo partly drawn)	> 100	> 100	> 100	> 100	> 100	> 100	> 100	> 100	> 100	
CC(=O)Nc1ccc(C(=O)N2N=C(C)/C(=C/c3cccc(O)c3)C2=O)cc1		> 100	> 100		> 100	> 100	> 100	> 100	> 100	

Reference: PubChem BioAssay (NCI)
